Test results: patent publication US20060025390A1, “Treatment of hormone allergy and related symptoms and disorders” (priority 2004, published 2006)

Key:
[1] = test system: patients experiencing hormone allergy symptoms; assay: Clinical responses of hormone allergy symptoms to intradermal dilute progesterone (or estrogen); assay type: in vivo, human; conditions: 0.4 mg intradermally
Description: Patients experiencing several hormone allergy symptoms experienced relief when administered dilute doses of progesterone either sublingually or intradermally.
The symptoms measured were irritation or pain in the neck, nose, eyes, throat, ear, skin, back, hips, upper extremities and lower extremities, headache, and shortness of breath. […]
Patients were designated as responding patients in Table 1 if they experienced any relief of the indicated symptom. Patients were also asked to estimate the amount of improvement in the symptom, an average of which is
In Table 2 the probability that positive results (i.e. patients responding to treatment) were due to random effects was calculated using standard statistical analysis of patient tests. It was assumed that if the treatment has no effect, there is a 50% chance that a patient will indicate a positive response and a 50% chance that a patient will indicate a negative response. From this assumption, coupled with the actual data, one may calculate the probability that positive responses are due to an actual effect of the treatment and not simply random effects. In general, results with a less than 1% chance of being random are considered highly significant. Results with a less than 5% chance of being random are normally conclusively labeled as nonrandom. Thus, the results observed for most of the symptoms in Table 2 are highly significant, with only the results for ear irritation and pain falling merely in the nonrandom category.
Hormone samples may be prepared in any way suitable for the intended administration route. For administration through intradermal injection, samples may be prepared as they were in the studies of Examples 2 and 3. Specifically, the progesterone was formulated from commercially available injectable progesterone. Each ml of the final formulation contained […] of progesterone and 10% benzyl alcohol as a preservative in sesame oil. 0.1 ml was administered per patient intradermally. Estrogen samples were similarly prepared.

[2] = test system: serum IgM anti-17-α-hydroxyprogesterone antibodies; assay: ELISA binding of IgM 17-α-hydroxyprogesterone antibodies to different hormones in solid phase; set-up: species or system human; conditions: for IgM binding (optical density): hormone in solid phase, 405 nm; for IgM % reaction: relative to 17-α-hydroxyprogesterone = 100
Description: (§1) The ELISA inhibition method was used to determine specificity and cross-reactivity between different hormones and to ensure the degree of human IgG, IgM and IgE estrogen or progesterone binding to estrogen or progesterone in solid phase. […] 100 μl of sera from three different patients with high IgG, IgM or IgE antibodies against 17-α-hydroxyprogesterone was added to all wells. After shaking and incubation for 1 hr at room temperature, addition of enzyme labeled anti-human IgG, IgM or IgE, repeat of incubation, washing, and addition of substrate, color development was measured at 405 nm. Results were calculated as percentage of anti-17-α-hydroxyprogesterone binding to 17-α-hydroxyprogesterone and other hormones. Also, anti-estrogen binding to estrogen and other hormones in solid phase by progesterone in liquid phase was performed and calculated in a similar manner.
(§2) Human sera containing 17-α-hydroxyprogesterone IgG-, IgM- and IgE-binding antibodies were reacted against progesterone, estrogen, hydrocortisone and cholesterol. In comparison to 100% binding of anti-17-α-hydroxyprogesterone-binding to 17-α-hydroxyprogesterone, the IgG anti-17-α-hydroxyprogesterone-binding to progesterone, estrogen, hydrocortisone and cholesterol was 69-77%, 25-30%, 39-53%, and less than 10% respectively (Table 4). The % binding of serum IgM and IgE anti-17-α-hydroxyprogesterone to 17-1-hydroxyprogesterone, progesterone, estrogen, hydrocortisone and cholesterol was similar to the binding of IgG. This binding of anti-17-α-hydroxyprogesterone to progesterone was the highest, followed by hydrocortisone, then estrogen, to almost no binding with cholesterol. Similar to this, human sera with IgG, IgM and IgE binding antibodies against estrogen were reacted with progesterone, 17-α-hydroxyprogesterone, hydrocortisone and cholesterol, in the presence of estrogen.

[3] = test system: serum IgG anti-estrogen antibodies; assay: Competition ELISA: absorption of serum IgG anti-estrogen with specific and non-specific antigens; assay type: binding, human; conditions: for IgG level after absorption: absorption with 250 μg/mL, optical density 405 nm
Description: (§3) For this, microtiter plates were coated with hormones and blocked by the addition of 2% BSA in PBST. 100 μl of serum diluent buffer was added to all wells. […] After 60 minutes incubation 100 μl serum anti-estrogen or anti-progesterone was added to all wells. […] Results were calculated as percentage of inhibition in antigen-antibody reaction.
(§4) To examine whether antibodies to estrogen or progesterone are specific or cross-reactive, we performed competition ELISA by adding specific and non-specific antigens in liquid phase and examined prevention of serum antibody binding to the antigen in solid phase. […] For IgE anti-estrogen, this inhibition by estrogen-BSA was between 54-62%, and with progesterone-BSA, from 37-43%. […] This cross-reaction between estrogen and progesterone antibodies may be due to structural similarities between these two hormones.

[4] = test system: serum IgG anti-17-α-hydroxyprogesterone antibodies; assay: ELISA binding of IgG 17-α-hydroxyprogesterone antibodies to different hormones in solid phase; set-up: species or system human; conditions: for IgG binding (optical density): hormone in solid phase, 405 nm; for IgG % reaction: relative to 17-α-hydroxyprogesterone = 100
Description: as §1, §2

[5] = test system: serum IgG anti-estrogen antibodies; assay: ELISA binding of IgG estrogen antibodies to different hormones in solid phase; set-up: species or system human; conditions: for IgG binding (optical density): hormone in solid phase, 405 nm; for IgG % reaction: relative to estrogen = 100
Description: as §1, §2

[6] = test system: serum IgM anti-estrogen antibodies; assay: ELISA binding of IgM estrogen antibodies to different hormones in solid phase; set-up: species or system human; conditions: for IgM binding (optical density): hormone in solid phase, 405 nm; for IgM % reaction: relative to estrogen = 100
Description: as §1, §2

[7] = test system: serum IgE anti-estrogen antibodies; assay: ELISA binding of IgE estrogen antibodies to different hormones in solid phase; set-up: species or system human; conditions: for IgE binding (optical density): hormone in solid phase, 405 nm; for IgE % reaction: relative to estrogen = 100
Description: as §1, §2

[8] = test system: serum IgE anti-estrogen antibodies; assay: Competition ELISA: absorption of serum IgE anti-estrogen with specific and non-specific antigens; assay type: binding, human; conditions: for IgE level after absorption: absorption with 250 μg/mL, optical density 405 nm
Description: as §3, §4

[9] = test system: serum IgE anti-17-α-hydroxyprogesterone antibodies; assay: ELISA binding of IgE 17-α-hydroxyprogesterone antibodies to different hormones in solid phase; set-up: species or system human; conditions: for IgE binding (optical density): hormone in solid phase, 405 nm; for IgE % reaction: relative to 17-α-hydroxyprogesterone = 100
Description: as §1, §2

[10] = antigen in liquid phase, over the three sera
[11] = relative to estrogen, over three sera

## estrogen
[1]
  symptom relief in patients not relieved by progesterone treatment: experience relief
[2]; sample 1
  IgM binding (optical density): 0.4
  IgM % reaction: −31%
[2]; sample 2
  IgM binding (optical density): 0.41
  IgM % reaction: −25%
[2]; sample 3
  IgM binding (optical density): 0.29
  IgM % reaction: −32%
[3]; [10]
  inhibition of anti-estrogen binding to estrogen (IgG): did not significantly absorb
[3]; serum sample 1, before absorption 1.83
  IgG level after absorption: 1.53
[3]; serum sample 2, before absorption 1.25
  IgG level after absorption: 0.95
[3]; serum sample 3, before absorption 0.76
  IgG level after absorption: 0.54
[4]; in comparison to 100% binding to 17-α-hydroxyprogesterone, over three sera
  IgG anti-17-α-hydroxyprogesterone binding: 25-30%
[4]; sample 1
  IgG binding (optical density): 0.48
  IgG % reaction: −30%
[4]; sample 2
  IgG binding (optical density): 0.24
  IgG % reaction: −25%
[4]; sample 3
  IgG binding (optical density): 0.18
[5]; [11]
  IgG anti-estrogen binding: 100%
[5]; sample 1
  IgG binding (optical density): 1.2
  IgG % reaction: −100%
[5]; sample 2
  IgG binding (optical density): 1.8
  IgG % reaction: −100%
[5]; sample 3
  IgG binding (optical density): 0.92
  IgG % reaction: −100%
[6]; [11]
  IgM anti-estrogen binding: 100%
[6]; sample 1
  IgM binding (optical density): 0.9
  IgM % reaction: −100%
[6]; sample 2
  IgM binding (optical density): 2.1
  IgM % reaction: −100%
[6]; sample 3
  IgM binding (optical density): 1.3
  IgM % reaction: −100%
[7]; [11]
  IgE anti-estrogen binding: 100%
[7]; sample 1
  IgE binding (optical density): 0.8
  IgE % reaction: −100%
[7]; sample 2
  IgE binding (optical density): 1.5
  IgE % reaction: −100%
[7]; sample 3
  IgE binding (optical density): 1.6
  IgE % reaction: −100%
[8]; [10]
  inhibition of IgE anti-estrogen binding: did not significantly absorb
[8]; serum sample 1, before absorption 2.15
  IgE level after absorption: 1.70
[8]; serum sample 2, before absorption 1.66
  IgE level after absorption: 1.30
[8]; serum sample 3, before absorption 1.34
  IgE level after absorption: 0.86
[9]; sample 1
  IgE binding (optical density): 0.42
  IgE % reaction: −29%
[9]; sample 2
  IgE binding (optical density): 0.75
  IgE % reaction: −31%
[9]; sample 3
  IgE binding (optical density): 0.37
  IgE % reaction: −25%
